Here are results for 3 compounds from patent US10942183B2, “Methods of detecting progesterone receptor and of detecting an expression level” (REGENTS OF THE UNIVERSITY OF MINNESOTA, priority 2017, dated 2021).

Test [1] relates to SLC37A2 expression in BT474 cells. Put plainly: SLC37A2 mRNA expression by RT-qPCR in BT474 cells. The test is classed as cell-based. To be noted: unmodified BT474 cells, progestin plus onapristone. The method, then: (§1) For reverse transcription quantitative polymerase chain reaction (RT-qPCR) assays, 5×10^5 cells/well were plated in six-well dishes, serum starved in modified IMEM for one day before treatment. RNA was extracted using TriPure reagent (Roche, Basel, Switzerland) and cDNA was created using the qScript cDNA SuperMix kit (Quanta Biosciences, Beverly, Mass.). Relative expression levels were determined by qPCR assays performed on a Roche Light-Cycler II using SYBR green master-mix (Roche, Basel, Switzerland). Target gene quantification levels were normalized to the expression of standard housekeeper genes: TBP, ACTB, 18S, and/or GAPDH.
(§2) PR cooperation with one or more RUNX factors may be a mechanism for promoter selection by uniquely modified receptors. The family of RUNX transcription factors (RUNX1, 2, and 3) has complex roles in development and tumor formation with both tumor suppressive and tumor-promoting activities. […] From the GSEA results, SLC37A2, a candidate PR target gene containing multiple RUNX2 binding motifs immediately upstream and within the gene, was identified (FIG. 7A). SLC37A2 is a glucose-6-phosphate transporter expressed in monocytes as well as breast and cervical tissues. […] PR/progestin-dependent regulation of SLC37A2 mRNA expression in multiple cell line models was thus measured. […]

In test [2] the test system is BT474 cells. The test can be described thus: Mammosphere formation in unmodified HER2+ BT474 cells. The test is classed as cell-based. How it is done:
Primary Mammospheres: Adherent cells were washed with PBS and dissociated enzymatically in 0.25% trypsin-EDTA (Invitrogen Corporation, Carlsbad, Calif.). Cells were sieved through a 40-μm sieve (BD FALCON, BD Biosciences, Bedford, Mass.) and analyzed microscopically for single-cellularity. Single cells were plated in ultra-low attachment plates (Corning, Inc., Corning, N.Y.) and cultured in a humid incubator. […] Mammosphere Forming Efficiency (MFE) % was calculated by the number of mammospheres per well/number of cells seeded per well.
Secondary Mammospheres: Primary mammospheres were collected by centrifugation (5 min, 1000 rpm), and dissociated enzymatically in 0.25% typsin-EDTA. Cells were sieved through a 40-μm tip strainer (Bel-Art SP Scienceware, South Wayne, N.J.) and analyzed microscopically for single-cellularity. […] Mammosphere Forming Efficiency (MFE) % was calculated by the number of mammospheres per well/number of cells seeded per well.
The results were also validated in unmodified ER+/PR+BT474 cells. […] In this “high-kinase” context, PRs are readily phosphorylated on Ser294.

The test system of test [3] is human breast tumor tissue (tumor explants). The test can be described thus: Breast tumor explants cultured ex vivo, Ki-67 IHC (proliferation). The test is classed as cell-based. To be noted: ER+/PR+ tumor explants, 48 hours; progesterone 10 nM; estrogen 1 nM and 10 nM; n=6. From the text:
De-identified breast tumor samples were collected after surgery and immediately processed for tissue explant maintenance on sponges in cell culture medium, as previously described (Ravindranathan et al. Nature Communications 2013, 4:1923). Samples were derived from six patients pathologically diagnosed with invasive ductal carcinoma (IDC) and scored positive for ER (94-100%) and PR (1-100%), and negative for HER2 expression. Tissue explants were starved in media containing hormone-stripped FBS for 24 hours, and then treated for 48 hours with (1) vehicle, (2) 1 nM estradiol, (3) 10 nM estradiol, (4) 1 nM progesterone, (5) 10 nM progesterone prior to processing for quantitation of Ki-67 levels by IHC. Across treatment conditions, statistical significance was tested for using one-way analysis-of-variance (ANOVA) followed by pairwise testing of all treatment groups using the TukeyHSD post-test with R statistical software (R Core Team: R: A language and environment for statistical computing. R Foundation for Statistical Computing, Vienna, Austria 2015, [available on the world wide web at r-project.org/]). In additional experiments, six explants were similarly treated with estrogen or progesterone (2 hours) but in combination with 1 uM U0126 (to inhibit ERKs 1/2) and phospho-Ser294 PR levels were measured by IHC. […]

For test [4], the system named is ERK1/2. The test can be described thus: Breast tumor explants, phospho-ERK1/2 IHC. The test is classed as cell-based, human. To be noted: progesterone 10 nM, 2 hours.
In test [5] the test system is SLC37A2 expression in MCF-7 cells. The test can be described thus: SLC37A2 mRNA expression by RT-qPCR in MCF-7 cells. The test is classed as cell-based. How it is done:
as §1, §2
Background: Quantitative PCR measures a nucleic acid by following its amplification.

Each structure is given as a SMILES string.

In the case of `CN(C)c1ccc([C@H]2C[C@]3(C)[C@@H](CC[C@]3(O)CCCO)[C@@H]3CCC4=CC(=O)CCC4=C32)cc1` [onapristone], in test [1], the “effect on progestin-stimulated SLC37A2 mRNA expression” value is listed as “effectively blocked”. The “effect on basal and progestin-stimulated primary mammosphere formation” value in test [2] (BT474, onapristone 100 or 1000 nM without or with R5020 10 nM) was “effectively reduced both basal and progestin-stimulated primary mammosphere formation”. Moreover, the secondary mammosphere formation result in test [2] (BT474, onapristone-containing media) is on record as “failed to form”.
Take `CC(=O)[C@H]1CC[C@H]2[C@@H]3CCC4=CC(=O)CC[C@]4(C)[C@H]3CC[C@]12C` [progesterone]: the “percentage of Ki67-positive cells compared to vehicle treatment” value in test [3] was “significantly higher percentage of Ki67-positive cells”. Also, the “activation of ERK1/2 (phospho-ERK1/2) in tumor explants” value in test [4] is on record as “accompanied by activation of ERK1/2”.
Consider `CC#C[C@]1(O)CC[C@H]2[C@@H]3CCC4=CC(=O)CCC4=C3[C@@H](c3ccc(N(C)C)cc3)C[C@@]21C` [mifepristone], for which the “effect on progestin-upregulated SLC37A2 expression” value in test [5] (MCF-7 overexpressing K388R PR, progestin plus mifepristone) is given as “blocked”. The “agonist activity on SLC37A2 expression, antiprogestin alone” value in test [5] (cells expressing KR PRs, RU486 treatment alone) is given as “weak partial agonist activity”.
